Data taken from PubChem BioAssay (NCI).
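96-well plates; 48 h exposure; 5 concentrations. Endpoints by linear interpolation between flanking doses. Not reached: highest tested concentration assigned. At the TGI there is no net growth.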

Experiments:
Assay in all cases: inhibition of tumour cell growth, NCI panel, 48 h
COLO 205 colon = tested on: COLO 205 colon
NCI-H226 lung = tested on: NCI-H226 lung
LOX IMVI melanoma = tested on: LOX IMVI melanoma
SK-MEL-28 melanoma = tested on: SK-MEL-28 melanoma
DMS 114 small cell lung = tested on: DMS 114 small cell lung
OVCAR-4 ovarian = tested on: OVCAR-4 ovarian
OVCAR-5 ovarian = tested on: OVCAR-5 ovarian
UACC-62 melanoma = tested on: UACC-62 melanoma
HL-60(TB) leukemia = tested on: HL-60(TB) leukemia
SK-MEL-2 melanoma = tested on: SK-MEL-2 melanoma
SF-295 CNS = tested on: SF-295 CNS
RXF 393 renal = tested on: RXF 393 renal
NCI-H522 lung = tested on: NCI-H522 lung
SK-MEL-5 melanoma = tested on: SK-MEL-5 melanoma
MDA-MB-435 = tested on: MDA-MB-435
A498 renal = tested on: A498 renal
EKVX NSCLC = tested on: EKVX NSCLC
BT-549 breast = tested on: BT-549 breast
HCC-2998 colon = tested on: HCC-2998 colon
HS 578T breast = tested on: HS 578T breast

| SMILES | TGI (COLO 205 colon) | TGI (NCI-H226 lung) | TGI (LOX IMVI melanoma) | TGI (SK-MEL-28 melanoma) | TGI (DMS 114 small cell lung) | TGI (OVCAR-4 ovarian) | TGI (OVCAR-5 ovarian) | TGI (UACC-62 melanoma) | TGI (HL-60(TB) leukemia) | TGI (SK-MEL-2 melanoma) | TGI (SF-295 CNS) | TGI (RXF 393 renal) | TGI (NCI-H522 lung) | TGI (SK-MEL-5 melanoma) | TGI (MDA-MB-435) | TGI (A498 renal) | TGI (EKVX NSCLC) | TGI (BT-549 breast) | TGI (HCC-2998 colon) | TGI (HS 578T breast) |
| --- | --- | --- | --- | --- | --- | --- | --- | --- | --- | --- | --- | --- | --- | --- | --- | --- | --- | --- | --- | --- |
| COc1ccc(C(C#N)NNC(=O)Cc2ccccc2)cc1OC (stereo unspecified) | > 100 µM | > 100 µM | > 100 µM | > 100 µM | > 100 µM | > 100 µM | > 100 µM | > 100 µM | > 100 µM | > 100 µM | > 100 µM | > 100 µM | > 100 µM | > 100 µM |  |  |  |  |  |  |
| O=C(N(O)c1ccccc1Cl)C(O)(c1ccccc1)c1ccccc1 | > 100 µM | > 100 µM | > 100 µM | > 100 µM |  | > 100 µM | > 100 µM | > 100 µM | 64.7 µM | > 100 µM | > 100 µM | > 100 µM | > 100 µM | > 100 µM | > 100 µM | > 100 µM | > 100 µM | > 100 µM | > 100 µM | > 100 µM |
| CCOC(=O)C(CCN1CCC2(CC1)C(=O)N(C)CN2c1ccccc1)C(=O)OCC | > 100 µM | > 100 µM | > 100 µM | > 100 µM |  | > 100 µM | > 100 µM | > 100 µM | > 100 µM | > 100 µM | > 100 µM | > 100 µM | > 100 µM | > 100 µM | > 100 µM | > 100 µM | > 100 µM | > 100 µM | > 100 µM | > 100 µM |
| COc1cccc2nc3c(C(=O)NCCN(C)C)cccc3cc12 | 2.55 µM | 4.15 µM | 2.49 µM | 9.85 µM |  | 4.8 µM | 6.5 µM | 7.77 µM | 4.48 µM | 12.7 µM | 10.8 µM | 9.74 µM | 3.42 µM | 3.09 µM | 9.41 µM | 2.98 µM | 9.64 µM | 10.7 µM | 12.3 µM | 7.5 µM |
| CN(CCN(C)C(=O)CCn1cc(F)c(=O)[nH]c1=O)C(=O)CCn1cc(F)c(=O)[nH]c1=O | > 100 µM | > 100 µM | > 100 µM | > 100 µM | > 100 µM | > 100 µM | > 100 µM | > 100 µM | > 100 µM | > 100 µM | > 100 µM | > 100 µM | 12.5 µM | > 100 µM |  |  | > 100 µM |  | > 100 µM |  |
| CC(Oc1ccc(OCC2CCCCC2)cc1)C(=O)OCC(=O)c1ccc(-c2ccccc2)cc1 (stereo unspecified) |  | > 100 µM | > 100 µM | > 100 µM | > 100 µM | > 100 µM |  | > 100 µM | > 100 µM | > 100 µM | > 100 µM | > 100 µM | > 100 µM | > 100 µM |  | > 100 µM |  |  | > 100 µM |  |
| CC(=O)OCC1OC(OC2CC3C(C)(C)C(O)CC[C@]3(C)C3CCC45CC4(CCC5[C@@H](C)CC(O)C(O)C(C)(C)O)[C@]23C)C(O)C(O)C1O (stereo partly specified) | > 10 µM | > 10 µM | > 10 µM | > 10 µM |  | > 10 µM | > 10 µM | > 10 µM | > 10 µM | > 10 µM | > 10 µM | > 10 µM | > 10 µM | > 10 µM | > 10 µM | > 10 µM | > 10 µM | > 10 µM | > 10 µM | > 10 µM |
| O=C(O)CCSC(CC1(c2ccc(Cl)cc2)NC(=O)CCS1)c1ccccc1 (stereo unspecified) | > 60.6 µM | 40.8 µM | > 100 µM | 37.7 µM |  | 29.3 µM | 37 µM | 39.7 µM | > 100 µM | 38.7 µM | 43.2 µM | > 54.8 µM | 41.7 µM | 48 µM | 29.8 µM | 42.9 µM | 46.9 µM | 31.1 µM | 39.6 µM | 33.4 µM |
| COc1cccc(C2CC23C(=O)NC(=O)NC3=O)c1 (stereo unspecified) | > 100 µM | > 100 µM | > 100 µM | > 100 µM | > 100 µM | > 100 µM | > 100 µM | > 100 µM | > 100 µM | > 100 µM | > 100 µM |  | > 100 µM | > 100 µM |  | > 100 µM | > 100 µM |  | > 100 µM |  |
| O=c1nc(N2CCNCC2)oc2cc(Cl)oc(=O)c12 | 19 µM | 37.9 µM | 5.89 µM | 15.8 µM |  | 21.6 µM | 30 µM | 25.2 µM | 8.47 µM | 29.1 µM | 20.9 µM | 24.8 µM | 5.9 µM | 19 µM | 18.5 µM | 37.9 µM | 19.4 µM | 6.26 µM | 25.1 µM | 5.9 µM |
| Cc1nn(C(=O)CC(=O)Nc2ccc(Cl)cc2)c(C)c1N=Nc1ccccc1C(=O)O | > 100 µM |  | > 100 µM | > 100 µM | > 100 µM | > 100 µM | > 100 µM | > 100 µM | > 100 µM | > 100 µM | > 100 µM |  | > 100 µM | > 100 µM |  | > 100 µM | > 100 µM |  | > 100 µM |  |
| [N-]=[N+]=CC(=O)OC1Cc2ccccc2C1 | > 100 µM | > 100 µM | > 100 µM | > 100 µM |  | > 100 µM | > 100 µM | > 100 µM | > 100 µM | > 100 µM | > 100 µM | > 100 µM | > 100 µM | > 100 µM | > 100 µM | > 100 µM | > 100 µM | > 100 µM | > 100 µM | > 100 µM |
| CCOC(=O)/C=C(\C(=O)OCC)n1ccc(=O)n(Cc2cn(CCCCOC(C)=O)nn2)c1=O | > 36.2 µM | 32.7 µM | 48.1 µM | 21.2 µM |  | 48.2 µM | 31.4 µM | 33.2 µM | 1.25 µM | 37 µM | > 62.1 µM | 47.4 µM | 4.03 µM | > 54.2 µM | 18.1 µM | 32 µM | 31.4 µM | 24.7 µM | 41 µM | 63.1 µM |
| CC1(C)OC2C(O)C(CO)OC2(C(F)F)O1 (stereo unspecified) | > 100 µM | > 100 µM | > 100 µM | > 100 µM |  | > 100 µM | > 100 µM | > 100 µM | > 100 µM | > 100 µM | > 100 µM | > 100 µM | > 100 µM | > 100 µM | > 100 µM | > 100 µM | > 100 µM | > 100 µM | > 100 µM | > 100 µM |
| CCOC(=O)/C(=C/c1ccc(N(C)C)cc1)N(CC)CC | > 100 µM | 94.2 µM | 78.5 µM | > 100 µM | > 100 µM | > 100 µM | > 100 µM | > 100 µM | 81 µM | > 100 µM | > 100 µM |  | > 100 µM |  |  |  | > 100 µM |  | > 100 µM |  |
| FC(F)(F)c1ccc2c(c1)nc(-c1ccc(Cl)cc1)n2CC1CCCN2CCCCC12 (stereo unspecified) | 24.4 µM | 31.4 µM | 29.8 µM | 30.8 µM |  | 35.6 µM | 21.4 µM | 28.1 µM | 29.2 µM | 30.2 µM | 31.7 µM | 30.1 µM | 26.5 µM | 27.1 µM | 35.8 µM | 27.5 µM | 23.4 µM | 27.9 µM | 26.7 µM | 36.3 µM |
| CCOC1c2cc(C(C)C)c(O)c(O)c2[C@@]23CCCC(C)(C)C2C1OC3=O (stereo partly specified) | > 100 µM | > 100 µM | > 100 µM | > 100 µM | > 100 µM |  | > 100 µM | > 100 µM | > 100 µM | > 100 µM | > 100 µM | > 100 µM | 98.6 µM | > 100 µM |  |  | > 100 µM |  | > 100 µM |  |
| CCCCC/C=C1\CCC(CN(C)C)C1=O (stereo unspecified) | 22.6 µM | 29.5 µM | 20.6 µM | 23.9 µM | 29 µM | 42.2 µM | 33.7 µM | 29.4 µM | 30.3 µM | 34.7 µM | 40.9 µM |  | 13.4 µM | 34.3 µM |  |  | > 56.3 µM |  | 31 µM |  |
| CC1C=CN(N(C)C)C2=C1C(=O)c1cnccc1C2=O (stereo unspecified) | 2.45 µM | 2.14 µM | 0.307 µM | 2.07 µM |  | 2.03 µM | 2.83 µM | 0.342 µM | 4.66 µM | 4.02 µM | 2.18 µM | 1.46 µM | 0.55 µM | 0.894 µM | 0.43 µM | 2.66 µM | 2.07 µM | 1.66 µM | 1.8 µM | 3.82 µM |
| COc1ccc2c(C(=O)c3cn(CCN4CCOCC4)c4ccccc34)cccc2c1 | > 92 µM | > 100 µM | > 100 µM | > 100 µM |  | > 100 µM | > 100 µM | > 100 µM | 54.3 µM | > 100 µM | > 54.8 µM | > 100 µM | > 100 µM | > 100 µM | > 100 µM | > 100 µM | > 100 µM | > 100 µM | > 100 µM | > 100 µM |
| CCOc1nnnc2nc[nH]c12 | > 100 µM | > 100 µM | > 100 µM | > 100 µM |  | > 100 µM | > 100 µM | > 100 µM | > 100 µM | > 100 µM | > 100 µM | > 100 µM | > 100 µM | > 100 µM | > 100 µM | > 100 µM | > 100 µM | > 100 µM | > 100 µM | > 100 µM |
